In US12441768B2, “Compositions and methods for treating endometriosis” (EndoMet Biosciences, Inc., priority 2018, dated 2025):
Where a SMILES comes first, the peptide text is derived from it.

Key:
[1] = target: Wnt-responsive promoter (TCF/LEF); experiment: Wnt-dependent luciferase reporter assay; assay type: cell-based, murine
Summary of the method: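 Murine 3T3 fibroblasts carrying a TCF/LEF-driven luciferase reporter, stimulated with Wnt3a in the presence of increasing peptide concentrations or vehicle. Luminescence inhibition gave EC50 values in uM.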

β-catenin = target: T1, β-catenin (Homo sapiens, UniProt P35222); experiment: KD50 measurement using competitive fluorescence polarization (FP) with labelled TCF4; assay type: binding; conditions: fluorescence polarization, β-catenin; for Kd: read-out: β-Cat FP KD
T1 sequence (P35222 1-781): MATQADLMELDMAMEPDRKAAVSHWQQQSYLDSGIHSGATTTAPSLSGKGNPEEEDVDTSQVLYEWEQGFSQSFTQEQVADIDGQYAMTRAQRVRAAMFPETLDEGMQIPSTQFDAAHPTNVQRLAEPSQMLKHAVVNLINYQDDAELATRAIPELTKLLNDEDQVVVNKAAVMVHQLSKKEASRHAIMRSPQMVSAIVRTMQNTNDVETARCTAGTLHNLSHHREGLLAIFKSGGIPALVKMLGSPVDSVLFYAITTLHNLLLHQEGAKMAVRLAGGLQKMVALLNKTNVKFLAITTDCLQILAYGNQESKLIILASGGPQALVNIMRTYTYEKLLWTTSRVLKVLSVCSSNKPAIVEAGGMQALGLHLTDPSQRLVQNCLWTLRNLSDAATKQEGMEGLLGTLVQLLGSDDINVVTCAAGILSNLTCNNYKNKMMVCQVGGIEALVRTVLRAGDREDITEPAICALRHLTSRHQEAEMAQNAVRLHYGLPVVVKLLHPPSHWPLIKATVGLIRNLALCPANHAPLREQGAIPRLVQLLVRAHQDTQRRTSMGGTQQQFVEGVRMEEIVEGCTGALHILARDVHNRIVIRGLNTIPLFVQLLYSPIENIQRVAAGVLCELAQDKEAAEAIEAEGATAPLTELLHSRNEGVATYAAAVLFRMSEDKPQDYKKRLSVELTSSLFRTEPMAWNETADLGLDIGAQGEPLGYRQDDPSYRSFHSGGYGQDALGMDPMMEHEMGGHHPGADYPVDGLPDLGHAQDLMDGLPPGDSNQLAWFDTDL
Summary of the method: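 Labelled TCF4 (5 nM) mixed with 100 nM β-catenin at room temperature; inhibitor added as serial dilutions from 10 nM to 30 uM. Polarization read at excitation 470 nm/emission 520 nm; binding displacement lowers polarization. Three independent runs.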

[2] = % Viability non-Wnt responsive cells

Structure (SMILES)	EC50 [1] [µM]	Kd (β-catenin) [µM]	viability [2] [%]	β-Cat FP Hill slope (β-catenin)
CC[C@H](C)[C@H](NC(=O)[C@H](CC(C)C)NC(=O)[C@H](Cc1ccccc1)NC(=O)[C@H](Cc1c[nH]c2ccccc12)N(C)C(=O)[C@H](CCSC)NC(=O)[C@H](CCCNC(=N)N)NC(=O)[C@@H](NC(=O)[C@@H](N)CCSC)[C@@H](C)CC)C(=O)N[C@@H](CO)C(=O)N[C@@H](Cc1ccccc1)C(=O)N[C@@H](Cc1c[nH]c2ccccc12)C(=O)NCC(=O)O [compound 53] (HELM PEPTIDE1{M.I.R.M.[meW].F.L.I.S.F.W.G}$$$$V2.0)	> 30	> 30	103	–
CC[C@H](C)[C@@H]1NC(=O)[C@H](CC(C)C)NC(=O)[C@H]([C@@H](C)CC)NC(=O)[C@H](Cc2c[nH]c3ccccc23)NC(=O)[C@@H](N)CCCCNC(=O)CC[C@@H](C(=O)O)NC(=O)[C@H](Cc2c[nH]c3ccccc23)NC(=O)[C@H](Cc2ccccc2)NC(=O)[C@H](CO)NC1=O [compound 182] (HELM PEPTIDE1{K.W.I.L.I.S.F.W.E}$PEPTIDE1,PEPTIDE1,1:R3-9:R3$$$V2.0)	22.5 to 30	0.4 to 1	95.3	1.06
CC[C@H](C)[C@H](NC(=O)[C@H](CC(C)C)NC(=O)[C@H](Cc1ccccc1)NC(=O)[C@H](Cc1c[nH]c2ccccc12)NC(=O)[C@H](CCSC)NC(=O)[C@H](CCCNC(=N)N)NC(=O)[C@H](CO)NC(=O)[C@@H](N)CCSC)C(=O)N[C@@H](CO)C(=O)N[C@@H](Cc1ccccc1)C(=O)N[C@@H](Cc1c[nH]c2ccccc12)C(N)=O [compound 72] (H-MSRMWFLISFW-NH2)	> 30	> 30	88.6	–
CC[C@H](C)[C@H](NC(=O)[C@H](CC(C)C)NC(=O)[C@H](Cc1ccccc1)NC(=O)[C@H](Cc1c[nH]c2ccccc12)NC(=O)[C@@H](N)CCSC)C(=O)N[C@@H](CO)C(=O)N[C@@H](Cc1ccccc1)C(=O)N[C@@H](Cc1c[nH]c2ccccc12)C(N)=O [compound 107] (H-MWFLISFW-NH2)	7.5 to 15	1 to 10	100	0.7
CC[C@H](C)[C@H](NC(=O)[C@H](CC(C)C)NC(=O)[C@H](Cc1ccccc1)NC(=O)[C@H](Cc1c[nH]c2ccccc12)NC(=O)[C@H](CCSC)NC(C)=O)C(=O)N[C@@H](CS)C(=O)N[C@@H](Cc1ccccc1)C(=O)N[C@@H](Cc1c[nH]c2ccccc12)C(=O)NCC(=O)O [compound 198] (Ac-MWFLICFWG-OH)	< 7.5	0.4 to 1	81.4	2.18
CC[C@H](C)[C@@H]1NC(=O)[C@H](CC(C)C)NC(=O)[C@H]([C@@H](C)CC)NC(=O)[C@H](Cc2c[nH]c3ccccc23)NC(=O)[C@H](CCSC)NC(=O)[C@@H](N)CCCCNC(=O)CNC(=O)[C@H](Cc2c[nH]c3ccccc23)NC(=O)[C@H](Cc2ccccc2)NC(=O)[C@H](CO)NC1=O [compound 71] (HELM PEPTIDE1{K.M.W.I.L.I.S.F.W.G}$PEPTIDE1,PEPTIDE1,1:R3-10:R2$$$V2.0)	> 30	> 30	93.7	–
CC[C@H](C)[C@H](NC(=O)[C@H](CC(C)C)NC(=O)[C@H](Cc1ccccc1)NC(=O)[C@H](Cc1c[nH]c2ccccc12)NC(=O)[C@H](Cc1c[nH]c2ccccc12)NC(=O)[C@H](CCCNC(=N)N)NC(=O)[C@H](CO)NC(=O)[C@@H](N)CCCCN)C(=O)N[C@@H](CO)C(=O)N[C@@H](Cc1ccccc1)C(=O)N[C@@H](Cc1c[nH]c2ccccc12)C(N)=O [compound 95] (H-KSRWWFLISFW-NH2)	> 30	> 30	109	–
CC[C@H](C)[C@H](NC(=O)[C@H](CC(C)C)NC(=O)[C@H](Cc1ccccc1)NC(=O)[C@H](Cc1c[nH]c2ccccc12)NC(=O)[C@H](CCSC)NC(=O)[C@H](CCCNC(=N)N)NC(=O)[C@H](CO)NC(=O)[C@@H](N)CCSC)C(=O)N[C@@H](CO)C(=O)N[C@@H](CO)C(=O)N[C@@H](Cc1c[nH]c2ccccc12)C(=O)NCC(=O)O [compound 54] (H-MSRMWFLISSWG-OH)	15 to 22.5	1 to 10	98.3	0.7
CC[C@H](C)[C@H](NC(=O)[C@H](CC(C)C)NC(=O)[C@H](Cc1ccccc1)NC(=O)[C@@H](N)Cc1c[nH]c2ccccc12)C(=O)N[C@@H](CO)C(=O)N[C@H](C(=O)N[C@@H](Cc1c[nH]c2ccccc12)C(=O)O)[C@@H](C)O [compound 103] (H-WFLISTW-OH)	15 to 22.5	1 to 10	102	1.71
CC[C@H](C)[C@H](NC(=O)[C@H](CC(C)C)NC(=O)[C@H](Cc1ccccc1)NC(=O)[C@H](Cc1c[nH]c2ccccc12)NC(=O)[C@H](CCSC)NC(=O)[C@H](CCCNC(=N)N)NC(=O)[C@H](CO)NC(=O)[C@@H](N)CC(=O)O)C(=O)N[C@@H](CO)C(=O)N[C@@H](Cc1ccccc1)C(=O)N[C@@H](Cc1c[nH]c2ccccc12)C(N)=O [compound 85] (H-DSRMWFLISFW-NH2)	> 30	> 30	107	–
CC[C@H](C)[C@@H]1NC(=O)[C@H](CC(C)C)NC(=O)[C@H](CC(C)C)NC(=O)[C@H](Cc2c[nH]c3ccccc23)NC(=O)[C@@H](N)CCCCNC(=O)C[C@@H](C(=O)O)NC(=O)[C@H](Cc2c[nH]c3ccccc23)NC(=O)[C@H](C)NC(=O)[C@H](CO)NC1=O [compound 206] (HELM PEPTIDE1{K.W.L.L.I.S.A.W.D}$PEPTIDE1,PEPTIDE1,1:R3-9:R3$$$V2.0)	15 to 22.5	> 30	98.7	–
CC[C@H](C)[C@H](NC(=O)[C@H](Cc1c[nH]c2ccccc12)NC(=O)[C@@H](N)CCSC)C(=O)N[C@@H](CC(C)C)C(=O)N[C@H](C(=O)N[C@@H](CO)C(=O)NC(C)(Cc1ccccc1)C(=O)N[C@@H](Cc1c[nH]c2ccccc12)C(=O)NCC(=O)O)[C@@H](C)CC (stereo partly shown) [compound 128] (HELM PEPTIDE1{M.W.I.L.I.S.[CC(Cc1ccccc1)(N[*:1])C(=O)[*:2]].W.G}$$$$V2.0)	7.5 to 15	0.4 to 1	132	2.15
CC[C@H](C)[C@H](NC(=O)[C@H](CC(C)C)NC(=O)[C@@H](NC(=O)[C@H](Cc1c[nH]c2ccccc12)NC(=O)[C@H](CCSC)NC(=O)[C@@H](N)Cc1c[nH]cn1)[C@@H](C)CC)C(=O)N[C@@H](CO)C(=O)N[C@@H](Cc1ccccc1)C(=O)N[C@@H](Cc1c[nH]c2ccccc12)C(=O)NCC(=O)O [compound 123] (H-HMWILISFWG-OH)	< 7.5	< 0.4	107	1.07
CC[C@H](C)[C@H](NC(=O)[C@H](CC(C)C)NC(=O)[C@H](Cc1ccccc1)NC(=O)[C@H](Cc1c[nH]c2ccccc12)NC(=O)[C@H](CCSC)NC(=O)[C@H](CCCNC(=N)N)NC(=O)[C@H](CO)NC(=O)[C@@H](N)CCSC)C(=O)N[C@@H](CO)C(=O)N[C@@H](CC(C)C)C(=O)N[C@@H](Cc1c[nH]c2ccccc12)C(=O)NCC(=O)O [compound 68] (H-MSRMWFLISLWG-OH)	7.5 to 15	> 30	91.2	–
CC[C@H](C)[C@H](NC(=O)[C@H](CC(C)C)NC(=O)[C@H](Cc1ccccc1)NC(=O)[C@H](Cc1c[nH]c2ccccc12)NC(=O)[C@@H](N)CCSC)C(=O)N[C@@H](CO)C(=O)N[C@@H](Cc1ccccc1)C(=O)N[C@@H](Cc1c[nH]c2ccccc12)C(=O)N(C)[C@@H](C)C(=O)NCC(=O)O [compound 45] (HELM PEPTIDE1{M.W.F.L.I.S.F.W.[meA].G}$$$$V2.0)	< 7.5	0.4 to 1	101	0.9
CC[C@H](C)[C@H](NC(=O)[C@H](Cc1c[nH]c2ccccc12)NC(=O)[C@@H](N)CCSC)C(=O)N[C@@H](CC(C)C)C(=O)N[C@H](C(=O)N[C@@H](C(=O)N[C@@H](Cc1ccccc1)C(=O)N[C@@H](Cc1c[nH]c2ccccc12)C(=O)NCC(=O)O)[C@H](C)O)[C@@H](C)CC [compound 137] (HELM PEPTIDE1{M.W.I.L.I.[dT].F.W.G}$$$$V2.0)	15 to 22.5	0.4 to 1	93.9	0.81
CC[C@H](C)[C@H](NC(=O)[C@H](CC(C)C)NC(=O)[C@H](Cc1ccccc1)NC(=O)[C@H](Cc1c[nH]c2ccccc12)NC(=O)[C@@H](NC(=O)[C@H](CCCNC(=N)N)NC(=O)[C@H](CO)NC(=O)[C@@H](N)CCSC)C(C)C)C(=O)N[C@@H](CO)C(=O)N[C@@H](Cc1ccccc1)C(=O)N[C@@H](Cc1c[nH]c2ccccc12)C(=O)NCC(=O)O [compound 64] (H-MSRVWFLISFWG-OH)	7.5 to 15	1 to 10	104	0.7
